In patent publication US9359367B2, “Tetrahydroquinazolinone derivatives as PARP inhibitors” (Lupin Limited, priority 2012, dated 2016):

Target: T1, PARP1 (Homo sapiens, UniProt P09874)
T1 construct: purchased BPS Bioscience
Test: PARP1 Biochemical Assay (BPS Bioscience kit, chemiluminescence)
Settings: histone-coated plate, biotinilated NAD+, 25° C. for 60 min, luminescence, read-out: PARP 1 inhibition IC50
Procedure, shortened: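 Human PARP1 (25–75 ng/well) with activated DNA was incubated with compound on histone-coated wells. Biotinylated NAD+ was added and the reaction ran 60 min at 25 °C. Ribosylation was detected by streptavidin-HRP chemiluminescence, % inhibition was normalised to enzyme-free and uninhibited controls, and IC50 was fitted from % inhibition versus concentration.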

T1 sequence (P09874 whole entry): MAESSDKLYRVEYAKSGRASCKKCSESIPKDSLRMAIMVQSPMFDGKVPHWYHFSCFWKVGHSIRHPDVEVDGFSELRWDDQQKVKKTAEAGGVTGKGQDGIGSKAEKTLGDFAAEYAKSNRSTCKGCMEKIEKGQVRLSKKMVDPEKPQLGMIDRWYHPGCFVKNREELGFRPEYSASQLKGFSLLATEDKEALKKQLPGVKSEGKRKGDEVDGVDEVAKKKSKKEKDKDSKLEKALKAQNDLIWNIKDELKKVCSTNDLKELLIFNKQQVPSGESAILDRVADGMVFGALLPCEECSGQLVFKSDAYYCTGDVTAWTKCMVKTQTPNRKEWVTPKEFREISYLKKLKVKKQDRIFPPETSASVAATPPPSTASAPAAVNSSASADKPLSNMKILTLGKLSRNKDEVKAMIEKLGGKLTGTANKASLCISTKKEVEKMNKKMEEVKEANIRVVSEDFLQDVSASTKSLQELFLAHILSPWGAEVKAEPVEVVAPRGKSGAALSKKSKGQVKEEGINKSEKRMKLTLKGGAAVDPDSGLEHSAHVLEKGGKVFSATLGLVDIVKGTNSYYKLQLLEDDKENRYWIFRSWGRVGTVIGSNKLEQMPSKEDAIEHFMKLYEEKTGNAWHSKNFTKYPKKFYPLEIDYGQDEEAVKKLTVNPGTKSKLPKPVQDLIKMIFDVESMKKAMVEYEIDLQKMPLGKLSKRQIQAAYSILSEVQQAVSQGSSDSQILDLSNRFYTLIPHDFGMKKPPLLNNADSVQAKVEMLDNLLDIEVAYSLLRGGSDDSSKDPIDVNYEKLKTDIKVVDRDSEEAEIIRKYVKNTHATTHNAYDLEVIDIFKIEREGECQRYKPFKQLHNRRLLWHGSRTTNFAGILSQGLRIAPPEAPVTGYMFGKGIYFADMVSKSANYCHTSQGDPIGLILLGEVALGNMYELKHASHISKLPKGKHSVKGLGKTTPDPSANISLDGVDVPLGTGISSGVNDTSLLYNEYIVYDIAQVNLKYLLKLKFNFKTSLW

IC50	SMILES
1 to 500 nM	Cc1ccc(N2CCN([C@H]3C=C(c4nc5c(c(=O)[nH]4)CC4(CC5)CC4)CC3)CC2)cc1 [Compound 73, (R)-2′-(3-(4-(p-tolyl)piperazin-1-yl)cyclopent-1-en-1-yl)-7′,8′-dihydro-3′H-spiro[cyclopropane-1,6′-quinazolin]-4′(5′H)-one]
1 to 500 nM	COc1ccc(N2CCN([C@H]3C=C(c4nc5c(c(=O)[nH]4)CC4(CC5)CC4)CC3)CC2)cc1 [Compound 74, (R)-2′-(3-(4-(4-methoxyphenyl)piperazin-1-yl)cyclopent-1-en-1-yl)-7′,8′-dihydro-3′H-spiro[cyclopropane-1,6′-quinazolin]-4′(5′H)-one]
1 to 500 nM	O=c1[nH]c(C2=C[C@H](N3CCC(c4ccc(F)cc4)CC3)CC2)nc2c1CC1(CC2)CC1 [Compound 75, (R)-2′-(3-(4-(4-fluorophenyl)piperidin-1-yl)cyclopent-1-en-1-yl)-7′,8′-dihydro-3′H-spiro[cyclopropane-1,6′-quinazolin]-4′(5′H)-one]
1 to 500 nM	CNC(=O)c1ccc(N2CCN([C@H]3C=C(c4nc5c(c(=O)[nH]4)CC4(CC5)CC4)CC3)CC2)nc1 [Compound 76, (R)—N-methyl-6-(4-(3-(4′-oxo-4′,5′,7′,8′-tetrahydro-3′H-spiro[cyclopropane-1,6′-quinazolin]-2′-yl)cyclopent-2-en-1-yl)piperazin-1-yl)nicotinamide]
1 to 500 nM	Cc1ccc(C2CCN([C@H]3C=C(c4nc5c(c(=O)[nH]4)CC4(CC5)CC4)CC3)CC2)cc1 [Compound 77, (R)-2′-(3-(4-(p-tolyl)piperidin-1-yl)cyclopent-1-en-1-yl)-7′,8′-dihydro-3′H-spiro[cyclopropane-1,6′-quinazolin]-4′(5′H)-one]
1 to 500 nM	O=c1[nH]c(C2=C[C@H](N3CCN(c4cccc(F)c4)CC3)CC2)nc2c1CC1(CC2)CC1 [Compound 78, (R)-2′-(3-(4-(3-fluorophenyl)piperazin-1-yl)cyclopent-1-en-1-yl)-7′,8′-dihydro-3′H-spiro[cyclopropane-1,6′-quinazolin]-4′(5′H)-one]
1 to 500 nM	O=c1[nH]c(C2=C[C@H](N3CCN(c4ccc(F)cc4Cl)CC3)CC2)nc2c1CC1(CC2)CC1 [Compound 79, (R)-2′-(3-(4-(2-chloro-4-fluorophenyl)piperazin-1-yl)cyclopent-1-en-1-yl)-7′,8′-dihydro-3′H-spiro[cyclopropane-1,6′-quinazolin]-4′(5′H)-one]
1 to 500 nM	Cc1cc(N2CCN([C@H]3C=C(c4nc5c(c(=O)[nH]4)CC4(CC5)CC4)CC3)CC2)ccc1F [Compound 80, (R)-2′-(3-(4-(4-fluoro-3-methylphenyl)piperazin-1-yl)cyclopent-1-en-1-yl)-7′,8′-dihydro-3′H-spiro[cyclopropane-1,6′-quinazolin]-4′(5′H)-one]
501 to 5000 nM	Cc1nc2ccc(N3CCN([C@H]4C=C(c5nc6c(c(=O)[nH]5)CC5(CC6)CC5)CC4)CC3)cc2s1 [Compound 81, (R)-2′-(3-(4-(2-methylbenzo[d]thiazol-6-yl)piperazin-1-yl)cyclopent-1-en-1-yl)-7′,8′-dihydro-3′H-spiro[cyclopropane-1,6′-quinazolin]-4′(5′H)-one]
1 to 500 nM	Cc1ccc(N2CCN([C@H]3C=C(c4nc5c(c(=O)[nH]4)CC4(CC5)CC4)CC3)CC2)cc1Cl [Compound 82, (R)-2′-(3-(4-(3-chloro-4-methylphenyl)piperazin-1-yl)cyclopent-1-en-1-yl)-7′,8′-dihydro-3′H-spiro[cyclopropane-1,6′-quinazolin]-4′(5′H)-one]
1 to 500 nM	Cc1ccc(N2CCN([C@H]3C=C(c4nc5c(c(=O)[nH]4)CC4(CC5)CC4)CC3)CC2)cc1F [Compound 84, (R)-2′-(3-(4-(3-fluoro-4-methylphenyl)piperazin-1-yl)cyclopent-1-en-1-yl)-7′,8′-dihydro-3′H-spiro[cyclopropane-1,6′-quinazolin]-4′(5′H)-one]
1 to 500 nM	Cc1cccc(N2CCN([C@H]3C=C(c4nc5c(c(=O)[nH]4)CC4(CC5)CC4)CC3)CC2)c1 [Compound 85, (R)-2′-(3-(4-(m-tolyl)piperazin-1-yl)cyclopent-1-en-1-yl)-7′,8′-dihydro-3′H-spiro[cyclopropane-1,6′-quinazolin]-4′(5′H)-one]
1 to 500 nM	O=c1[nH]c(C2=C[C@H](N3CCN(c4ccc(Cl)c(F)c4)CC3)CC2)nc2c1CC1(CC2)CC1 [Compound 86, (R)-2′-(3-(4-(4-chloro-3-fluorophenyl)piperazin-1-yl)cyclopent-1-en-1-yl)-7′,8′-dihydro-3′H-spiro[cyclopropane-1,6′-quinazolin]-4′(5′H)-one]
1 to 500 nM	CNC(=O)c1cccc(N2CCN([C@H]3C=C(c4nc5c(c(=O)[nH]4)CC4(CC5)CC4)CC3)CC2)c1 [Compound 87, (R)—N-methyl-3-(4-(3-(4′-oxo-4′,5′,7′,8′-tetrahydro-3′H-spiro[cyclopropane-1,6′-quinazolin]-2′-yl)cyclopent-2-en-1-yl)piperazin-1-yl)benzamide]
1 to 500 nM	Cc1ccc(N2CCN([C@H]3C=C(c4nc5c(c(=O)[nH]4)CC4(CC5)CC4)CC3)CC2)c(F)c1 [Compound 88, (R)-2′-(3-(4-(2-fluoro-4-methylphenyl)piperazin-1-yl)cyclopent-1-en-1-yl)-7′,8′-dihydro-3′H-spiro[cyclopropane-1,6′-quinazolin]-4′(5′H)-one]
1 to 500 nM	CNC(=O)c1ccc(N2CCN([C@H]3C=C(c4nc5c(c(=O)[nH]4)CC4(CC5)CC4)CC3)CC2)cc1F [Compound 89, (R)-2-fluoro-N-methyl-4-(4-(3-(4′-oxo-4′,5′,7′,8′-tetrahydro-3′H-spiro[cyclopropane-1,6′-quinazolin]-2′-yl)cyclopent-2-en-1-yl)piperazin-1-yl)benzamide]
1 to 500 nM	Cc1ccccc1N1CCN([C@H]2C=C(c3nc4c(c(=O)[nH]3)CC3(CC4)CC3)CC2)CC1 [Compound 90, (R)-2′-(3-(4-(o-tolyl)piperazin-1-yl)cyclopent-1-en-1-yl)-7′,8′-dihydro-3′H-spiro[cyclopropane-1,6′-quinazolin]-4′(5′H)-one]
1 to 500 nM	O=c1[nH]c(C2=C[C@H](N3CCN(c4ccsc4)CC3)CC2)nc2c1CC1(CC2)CC1 [Compound 91, (R)-2′-(3-(4-(thiophen-3-yl)piperazin-1-yl)cyclopent-1-en-1-yl)-7′,8′-dihydro-3′H-spiro[cyclopropane-1,6′-quinazolin]-4′(5′H)-one]
1 to 500 nM	Cc1ccc(N2CCN([C@H]3C=C(c4nc5c(c(=O)[nH]4)CC4(CC5)CC4)CC3)CC2)c(Cl)c1 [Compound 92, (R)-2′-(3-(4-(2-chloro-4-methylphenyl)piperazin-1-yl)cyclopent-1-en-1-yl)-7′,8′-dihydro-3′H-spiro[cyclopropane-1,6′-quinazolin]-4′(5′H)-one]
1 to 500 nM	O=c1[nH]c(C2=C[C@H](N3CCN(c4cccc(F)c4Cl)CC3)CC2)nc2c1CC1(CC2)CC1 [Compound 93, (R)-2′-(3-(4-(2-chloro-3-fluorophenyl)piperazin-1-yl)cyclopent-1-en-1-yl)-7′,8′-dihydro-3′H-spiro[cyclopropane-1,6′-quinazolin]-4′(5′H)-one]
1 to 500 nM	CNC(=O)c1ccc(N2CCN([C@H]3C=C(c4nc5c(c(=O)[nH]4)CC4(CC5)CC4)CC3)CC2)cc1Cl [Compound 94, (R)-2-chloro-N-methyl-4-(4-(3-(4′-oxo-4′,5′,7′,8′-tetrahydro-3′H-spiro[cyclopropane-1,6′-quinazolin]-2′-yl)cyclopent-2-en-1-yl)piperazin-1-yl)benzamide]
1 to 500 nM	Cc1cc(F)ccc1N1CCN([C@H]2C=C(c3nc4c(c(=O)[nH]3)CC3(CC4)CC3)CC2)CC1 [Compound 95, (R)-2′-(3-(4-(4-fluoro-2-methylphenyl)piperazin-1-yl)cyclopent-1-en-1-yl)-7′,8′-dihydro-3′H-spiro[cyclopropane-1,6′-quinazolin]-4′(5′H)-one]
1 to 500 nM	Cc1cc(Cl)ccc1N1CCN([C@H]2C=C(c3nc4c(c(=O)[nH]3)CC3(CC4)CC3)CC2)CC1 [Compound 96, (R)-2′-(3-(4-(4-chloro-2-methylphenyl)piperazin-1-yl)cyclopent-1-en-1-yl)-7′,8′-dihydro-3′H-spiro[cyclopropane-1,6′-quinazolin]-4′(5′H)-one]
1 to 500 nM	CNC(=O)c1ccc(N2CCN([C@H]3C=C(c4nc5c(c(=O)[nH]4)CC4(CC5)CC4)CC3)CC2)c(C)c1 [Compound 97, (R)—N, 3-dimethyl-4-(4-(3-(4′-oxo-4′,5′,7′,8′-tetrahydro-3′H-spiro[cyclopropane-1,6′-quinazolin]-2′-yl)cyclopent-2-en-1-yl)piperazin-1-yl)benzamide]
1 to 500 nM	CNC(=O)c1ccc(N2CCN([C@H]3C=C(c4nc5c(c(=O)[nH]4)CC4(CC5)CC4)CC3)CC2)cc1C [Compound 98, (R)—N, 2-dimethyl-4-(4-(3-(4′-oxo-4′,5′,7′,8′-tetrahydro-3′H-spiro[cyclopropane-1,6′-quinazolin]-2′-yl)cyclopent-2-en-1-yl)piperazin-1-yl)benzamide]
501 to 5000 nM	O=c1[nH]c(C2=C[C@H](N3CCN(c4cccc(Cl)c4F)CC3)CC2)nc2c1CC1(CC2)CC1 [Compound 99, (R)-2′-(3-(4-(3-chloro-2-fluorophenyl)piperazin-1-yl)cyclopent-1-en-1-yl)-7′,8′-dihydro-3′H-spiro[cyclopropane-1,6′-quinazolin]-4′(5′H)-one]
1 to 500 nM	O=c1[nH]c(C2=C[C@H](N3CCN(c4cccc(F)c4F)CC3)CC2)nc2c1CC1(CC2)CC1 [Compound 100, (R)-2′-(3-(4-(2,3-difluorophenyl)piperazin-1-yl)cyclopent-1-en-1-yl)-7′,8′-dihydro-3′H-spiro[cyclopropane-1,6′-quinazolin]-4′(5′H)-one]
1 to 500 nM	O=c1[nH]c(C2=C[C@H](N3CCN(c4nccs4)CC3)CC2)nc2c1CC1(CC2)CC1 [Compound 101, (R)-2′-(3-(4-(thiazol-2-yl)piperazin-1-yl)cyclopent-1-en-1-yl)-7′,8′-dihydro-3′H-spiro[cyclopropane-1,6′-quinazolin]-4′(5′H)-one]
